Consider 24 compounds from patent US11001569B2, “6-membered heteroaromatic substituted cyanoindoline derivatives as NIK inhibitors” (Janssen Pharmaceutica NV, priority 2016, dated 2021).

For series [1], the target named is recombinant human NF-kappaB-inducing Kinase (NIK/MAP3K14) (Homo sapiens, UniProt Q99558). Briefly: Inhibition of auto-phosphorylation of recombinant human NIK/MAP3K14 activity (AlphaScreen). In kind it is biochemical. As to conditions: 25 microM ATP, averaged over all measurements on all batches. For orientation: Bead proximity is the source of the signal in Alpha formats.
Chain of recombinant human NF-kappaB-inducing Kinase (NIK/MAP3K14) (Q99558 whole entry): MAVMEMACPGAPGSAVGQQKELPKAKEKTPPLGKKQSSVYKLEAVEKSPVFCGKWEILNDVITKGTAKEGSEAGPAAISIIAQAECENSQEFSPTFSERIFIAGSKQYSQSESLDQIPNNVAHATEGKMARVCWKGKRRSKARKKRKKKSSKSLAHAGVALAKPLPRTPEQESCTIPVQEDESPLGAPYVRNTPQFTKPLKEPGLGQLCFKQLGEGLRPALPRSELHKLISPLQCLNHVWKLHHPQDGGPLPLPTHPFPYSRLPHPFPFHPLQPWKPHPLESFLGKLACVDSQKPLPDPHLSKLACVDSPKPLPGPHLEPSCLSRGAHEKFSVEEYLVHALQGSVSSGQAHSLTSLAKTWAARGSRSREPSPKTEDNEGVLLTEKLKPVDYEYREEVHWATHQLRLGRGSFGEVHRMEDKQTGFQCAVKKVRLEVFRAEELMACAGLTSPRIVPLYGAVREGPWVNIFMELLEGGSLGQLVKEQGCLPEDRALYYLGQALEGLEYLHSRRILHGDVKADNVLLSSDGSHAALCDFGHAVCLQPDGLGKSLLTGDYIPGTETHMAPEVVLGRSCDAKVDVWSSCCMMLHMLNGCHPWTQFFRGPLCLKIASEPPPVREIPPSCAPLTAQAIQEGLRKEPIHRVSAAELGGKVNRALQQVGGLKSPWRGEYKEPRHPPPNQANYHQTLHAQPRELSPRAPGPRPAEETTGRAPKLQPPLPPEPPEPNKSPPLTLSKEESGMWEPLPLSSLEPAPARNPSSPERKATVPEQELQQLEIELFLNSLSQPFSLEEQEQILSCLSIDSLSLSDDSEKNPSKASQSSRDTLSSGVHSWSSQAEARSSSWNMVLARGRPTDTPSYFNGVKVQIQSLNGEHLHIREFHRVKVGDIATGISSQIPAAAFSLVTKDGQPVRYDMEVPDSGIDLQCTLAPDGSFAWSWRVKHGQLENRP

Series [2] relates to P-IKKα levels in L363 (NIK translocated multiple myeloma) cells. Briefly: Effect of compounds on P-IKKα levels in L363 cells (Mesoscale sandwich immuno-assay). In kind it is cell-based, human. The settings on record: 2 hr treatment, averaged values, read-out: Inhibition of pIKKα_L-363 (IC50 (nM)). The protocol: Effect of Compounds on P-IKKα Levels in L363 (NIK Translocated Multiple Myeloma) Cells
All compounds tested were dissolved in DMSO and further dilutions were made in culture medium. Final DMSO concentration was 1% (v/v) in cell assays. The human L363 cells (ATCC) were cultured in RPMI 1640 medium supplemented with GlutaMax and 10% fetal calf serum (PAA). Cells were routinely maintained at densities of 0.2×10^6 cells per ml-1×10^6 cells per ml at 37° C. in a humidified 5% CO2 atmosphere. Cells were passaged twice a week splitting back to obtain the low density. Cells were seeded in 96 well plates (Nunc 167008) at 2×10^6 per ml media in a volume of 75 μl per well plus 25 μl 1 μg/ml recombinant human B-cell activating factor (BAFF/BLyS/TNFSF13B). Seeded cells were incubated at 37° C. in a humidified 5% CO2 atmosphere for 24 hr. Drugs and/or solvents were added (20 μl) to a final volume of 120 μl. Following 2 hr treatment plates were removed from the incubator and cell lysis was achieved by the addition of 30 μl 5× lysis buffer followed by shaking on a plate shaker at 4° C. for 10 min. At the end of this incubation lysed cells were centrifuged at 800×g for 20 min at 4° C. and the lysate was assessed for P-IKK levels by sandwich immuno-assay carried out in anti-rabbit antibody coated Mesoscale plates. Within an experiment, the results for each treatment were the mean of 2 replicate wells. For initial screening purposes, compounds were tested using an 8 point dilution curve (serial 1:3 dilutions). […] The blank incubation value was subtracted from all control and sample values. To determine the IC50 a sigmoidal curve was fitted to the plot of % inhibition of control P-IKKα levels versus Log10 compound concentration.

Series [3] has as its system KMS12-BM (NIK WT) multiple myeloma cells. Put plainly: Antiproliferative activity on KMS12-BM multiple myeloma cells (CellTiter-Glo). The settings on record: 96 hr treatment, averaged values, read-out: KMS-12 Proliferation inhibition (IC50 (nM)). In kind it is cell-based, human. A digest of the protocol: (§1)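 Cells plated at 15000 (JJN3) or 20000 (KMS12BM) per well and treated 96 h at 37° C, 5% CO2, final DMSO 0.3%, 9-point 1:3 dilutions. Viability by CellTiter-Glo luminescence; time-zero blank subtracted, growth expressed as percent of untreated control.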

Series [4] concerns JJN-3 (NIK translocated) multiple myeloma cells. Put plainly: Antiproliferative activity on JJN-3 multiple myeloma cells (CellTiter-Glo). In kind it is cell-based, human. The settings on record: JJN-3 (NIK translocated) cells, 96 hr treatment, averaged values, read-out: JJN-3 Proliferation inhibition (IC50 (nM)). In short, it runs like this: as §1
For orientation: In ATP-based viability assays light output follows the ATP content of the culture.

Molecules are shown by their SMILES. Values joined by “and” are separate entries in the source; they are usually repeats but may differ in a detail not shown here. Equal entries are not always repeated. Where two headings read alike, the source gives them in different places.

Broadly, the melting point is the temperature, or range, at which the solid turns liquid. The compound `COc1cnc(C)cc1Nc1nccc(-c2cc(C#N)c3c(c2)[C@@](C)(CO)CN3)n1` [Compound 162] came in with a melting point of more than 260 °C. In addition, the IC50 in series [1] was found to be 3 nM. In addition, the IC50 in series [2] (Homo sapiens, L-363, 2 h) was 1.3 nM. Moreover, in series [3] (Homo sapiens, KMS-12-BM, 96 h), the IC50 is more than 10000 nM. Also, the IC50 in series [4] (Homo sapiens, JJN-3, 96 h) turned out to be 60 nM.
For `CN(C)C(=O)COc1ncc(Cl)cc1Nc1nccc(-c2cc(C#N)c3c(c2)[C@@](C)(CO)CN3)n1` [Compound 52], in that order: 281 °C, approximately 1.48 nM, 0.7 nM, 871 nM and 251 nM.
The like results for `Cc1cc(Nc2nccc(-c3cc(C#N)c4c(c3)[C@@](C)(CO)CN4)n2)c(=O)n(CC2(C)COC2)c1` [Compound 29i] were, in that order, 129 °C, 3 nM, 3.7 nM, more than 10000 nM and 100 nM.
For `Cc1cc(Nc2nccc(-c3cc(C#N)c4c(c3)[C@@](C)(CO)CN4)n2)c(=O)n(CC(C)N2CCOCC2)c1` (single isomer, unassigned) [Compound 22i], in that order: 138 °C, 3.4 nM, 2.1 nM, 9120 nM and 33 nM.
For `C[C@]1(CO)CNc2c(C#N)cc(-c3ccnc(Nc4ccc[nH]c4=O)n3)cc21` [Compound 8i], the melting point was more than 250 °C. Further, in series [1], the IC50 is 4.5 nM. In addition, the IC50 in series [2] (Homo sapiens, L-363, 2 h) was determined as 74.1 nM. For the same compound, in series [3] (Homo sapiens, KMS-12-BM, 96 h), the IC50 was more than 10000 nM. In addition, the IC50 in series [4] (Homo sapiens, JJN-3, 96 h) was determined as 776 nM.
Consider `Cc1cnc(C2CCOCC2)c(Nc2nccc(-c3cc(C#N)c4c(c3)[C@@](C)(CO)CN4)n2)c1` [Compound 173], for which the melting point stood at 225 °C. Further, the IC50 in series [1] was 15.1 nM. The IC50 in series [2] (Homo sapiens, L-363, 2 h) stood at 69.2 nM. Further, the IC50 in series [3] (Homo sapiens, KMS-12-BM, 96 h) is more than 10000 nM. The IC50 in series [4] (Homo sapiens, JJN-3, 96 h) stood at 933 nM.
For `Cc1cc(Nc2nccc(-c3cc(C#N)c4c(c3)[C@@](C)(CO)CN4)n2)c(=O)n(CCN2CCN(C)CC2)c1` [Compound 19i], in that order: 148 °C, 0.6 nM, 2.5 nM, more than 10000 nM and 25 nM.
The like results for `Cc1cc(Nc2nccc(-c3cc(C#N)c4c(c3)[C@@](C)(CO)CN4)n2)c(=O)n(CCN2CC(C)NC(C)C2)c1` (stereo partly drawn) [Compound 16i] were, in that order, 232 °C, 1.2 nM, 11 nM, more than 10000 nM and 25 nM.
For `Cc1cnc(CO)cc1Nc1nccc(-c2cc(C#N)c3c(c2)[C@@](C)(CO)CN3)n1` [Compound 156], in that order: 245 °C, 2.3 nM, 6.3 nM, approximately 6460 nM and 105 nM.
In turn, `Cc1cnc(C#N)cc1Nc1nccc(-c2cc(C#N)c3c(c2)[C@@](C)(CO)CN3)n1` [Compound 170] yielded a melting point of 279 °C. Besides, the IC50 in series [1] is 1.1 nM. Further, in series [2] (Homo sapiens, L-363, 2 h), the IC50 is 1 nM. For the same compound, the IC50 in series [3] (Homo sapiens, KMS-12-BM, 96 h) is more than 10000 nM. The IC50 in series [4] (Homo sapiens, JJN-3, 96 h) is 5 nM.
`Cc1cc(Nc2nccc(-c3cc(C#N)c4c(c3)[C@@](C)(CO)CN4)n2)c(OC(C)C)nc1CCN1CC(F)C1` [Compound 157] registered a melting point of 173 °C. Also, the IC50 in series [1] was 9.3 nM. Moreover, the IC50 in series [2] (Homo sapiens, L-363, 2 h) was 25.7 nM. Also, the IC50 in series [3] (Homo sapiens, KMS-12-BM, 96 h) is more than 10000 nM. For the same compound, the IC50 in series [4] (Homo sapiens, JJN-3, 96 h) was found to be 62 nM.
For `C[C@]1(CO)CNc2c(C#N)cc(-c3ccnc(Nc4cc(F)cn(CCN5CCOCC5)c4=O)n3)cc21` [Compound 3i], the melting point is 252 °C. For the same compound, the IC50 in series [1] stood at 1.3 nM. Also, the IC50 in series [2] (Homo sapiens, L-363, 2 h) is 3.3 nM. Moreover, in series [3] (Homo sapiens, KMS-12-BM, 96 h), the IC50 was more than 10000 nM. Further, the IC50 in series [4] (Homo sapiens, JJN-3, 96 h) was approximately 1780 nM.
For `CC1(COc2ncc(C#N)cc2Nc2nccc(-c3cc(C#N)c4c(c3)[C@@](C)(CO)CN4)n2)COC1` [Compound 76], in that order: 162 °C, 5.1 nM, 26.9 nM, more than 10000 nM and more than 10000 nM.
For `Cc1cnc(OC2CN(C)CC2F)c(Nc2nccc(-c3cc(C#N)c4c(c3)[C@@](C)(CO)CN4)n2)c1` (stereo partly drawn) [Compound 154], the melting point was determined as 185 °C. For the same compound, the IC50 in series [1] was 7.2 nM. Besides, in series [2], the IC50 came out at 3 nM. In addition, the IC50 in series [3] was approximately 7940 nM. Besides, the IC50 in series [4] came out at 148 nM.
`COc1nc(CCC(=O)N(C)C)ccc1Nc1nccc(-c2cc(C#N)c3c(c2)[C@@](C)(CO)CN3)n1` [Compound 49] yielded a melting point of 195 °C. Also, the IC50 in series [1] worked out at 1.6 nM. Moreover, the IC50 in series [2] (Homo sapiens, L-363, 2 h) is 0.8 nM. Moreover, the IC50 in series [3] (Homo sapiens, KMS-12-BM, 96 h) is approximately 9330 nM. For the same compound, the IC50 in series [4] (Homo sapiens, JJN-3, 96 h) was 35 nM.
For `COCCCc1ncc(C#N)cc1Nc1nccc(-c2cc(C#N)c3c(c2)[C@@](C)(CO)CN3)n1` [Compound 65], in that order: 158 °C, 4.5 nM, 15.5 nM, more than 10000 nM and 263 nM.
For `Cc1cc(Nc2nccc(-c3cc(C#N)c4c(c3)[C@@](C)(COC(=O)C(C)C)CN4)n2)c(=O)n(CCN2CC(C)OC(C)C2)c1` (stereo partly drawn) [Compound 24i], in that order: 120 °C, 23.4 nM, 5.5 nM, more than 10000 nM and 32 nM.
The like results for `COc1nc(-c2cnn(C)c2)c(C)cc1Nc1nccc(-c2cc(C#N)c3c(c2)[C@@](C)(CO)CN3)n1` [Compound 91] were, in that order, 166 °C, 8.9 nM, 5.4 nM, more than 10000 nM and 81 nM.
`Cc1cc(Nc2nccc(-c3cc(C#N)c4c(c3)[C@@](C)(CO)CN4)n2)c(=O)n(C)c1` [Compound 9i] returned a melting point of 313 °C. The IC50 in series [1] came out at 1 nM. In series [2] (Homo sapiens, L-363, 2 h), the IC50 came out at 8.5 nM. Also, the IC50 in series [3] (Homo sapiens, KMS-12-BM, 96 h) is more than 10000 nM. Besides, the IC50 in series [4] (Homo sapiens, JJN-3, 96 h) stood at 120 nM.
`Cc1cc(Nc2nccc(-c3cc(C#N)c4c(c3)[C@@](C)(CO)CN4)n2)c(=O)n(CC(C)N2CCOCC2)c1` (single isomer, unassigned) [Compound 23i]: the melting point was determined as 136 °C. Further, in series [1], the IC50 was found to be 2.3 nM. Also, the IC50 in series [2] was 2.9 nM. The IC50 in series [3] is more than 10000 nM. Besides, the IC50 in series [4] was 30 nM.
Take `COc1ncc(C)cc1Nc1nccc(-c2cc(C#N)c3c(c2)[C@@](C)(CO)CN3)n1` [Compound 59]: the melting point is 234 °C and 237 °C. For the same compound, the IC50 in series [1] was found to be 2.5 nM. In addition, the IC50 in series [2] (Homo sapiens, L-363, 2 h) stood at 13.2 nM. Also, the IC50 in series [3] (Homo sapiens, KMS-12-BM, 96 h) was more than 10000 nM. The IC50 in series [4] (Homo sapiens, JJN-3, 96 h) came out at 16 nM.
`Cc1cc(Nc2nccc(-c3cc(C#N)c4c(c3)[C@@](C)(CO)CN4)n2)c(=O)n(CCN2CC(F)(F)C2)c1` [Compound 17i] gave a melting point of 190 °C. In addition, the IC50 in series [1] was 1.9 nM. In series [2] (Homo sapiens, L-363, 2 h), the IC50 came out at 1.8 nM. The IC50 in series [3] (Homo sapiens, KMS-12-BM, 96 h) was more than 10000 nM. Moreover, the IC50 in series [4] (Homo sapiens, JJN-3, 96 h) was found to be 33 nM.
Regarding `Cc1cc(Nc2nccc(-c3cc(C#N)c4c(c3)[C@@](C)(CO)CN4)n2)c(=O)n(Cc2nccn2C)c1` [Compound 4i], the melting point is 235 °C. Besides, in series [1], the IC50 was determined as 1.3 nM. For the same compound, the IC50 in series [2] (Homo sapiens, L-363, 2 h) turned out to be 8.9 nM. The IC50 in series [3] (Homo sapiens, KMS-12-BM, 96 h) is more than 10000 nM. The IC50 in series [4] (Homo sapiens, JJN-3, 96 h) was determined as 316 nM.
The like results for `CN(C)C(=O)Cn1cc(Cl)cc(Nc2nccc(-c3cc(C#N)c4c(c3)[C@@](C)(CO)CN4)n2)c1=O` [Compound 11i] were, in that order, 299 °C, 1.9 nM, 3.2 nM, more than 10000 nM and approximately 1120 nM.
